Laboratory results: US20140288043A1, “PYRAZOLOPYRIDINE COMPOUNDS” (Genentech, Inc., priority 2013, published 2014)

Molecular target: LRRK2 (Homo sapiens, UniProt Q5S007)
Experiment: LRRK2 protein kinase assay ([γ-33P] ATP, peptide substrate), KI values of Table 1
Format: biochemical
Settings: LRRK2 affinity values
From the text: All LRRK2 protein kinases were of human origin and were sourced from Invitrogen Corporation (Carlsbad, Calif. 92008 USA) unless otherwise indicated. The active mutant used was recombinant human, catalytic domain (amino acids 970-2527) containing a G2019S mutation, GST-tagged, expressed in insect cells (Invitrogen Cat#PV4881). The wild type used was recombinant human, catalytic domain (amino acids 970-2527) GST-tagged, expressed in insect cells (Invitrogen Cat#PV4873). The kinase dead mutant used was recombinant human, catalytic domain (amino acids 970-2527) containing a D1994A mutation, GST-tagged, expressed in insect cells (Invitrogen Cat#PM4041AE). No special measures were taken to activate any of the kinases.
All assays were carried out at room temperature (˜21° C.) and were linear with respect to time and enzyme concentration under the conditions used. Assays were performed for 180 min in a 96 well format. LRRK2 was present at a concentration of approximately 5 nM. The enzyme was diluted and assayed in 50 mM Tris-HCl pH7.5, 0.1 mM EGTA, 1 mM DTT and 10 mM MgCl2. The concentration of magnesium chloride in the assay was 10 mM. The [γ-33P] ATP (0.4 μCi/well) was used at 134 uM for G2019S mutant and at 57 μM for the wild type kinase in order to be at Km. The peptide substrate in the assay was […] at 100 μM.
The assays were initiated with Mg/ATP and stopped by the addition of 25 μl/well 50% orthophosphoric acid. Reactions were harvested onto Whatman P81 Unifilter Plates (Fisher Scientific. Loughborough, LE115RG, UK. Cat# FDU-105-020U) using a Tomtec harvester. (Tomtec Hamden, Conn. 06514. USA) Plates were counted using a Perkin Elmer Top Count NX7. (Perkin Elmer, Shelton Conn. 06484-4794 USA)
IC50 values of inhibitors were determined after carrying out assays at 10 different concentrations of each compound in duplicate.

Sequence of LRRK2 (Q5S007 whole entry G2019S, form open): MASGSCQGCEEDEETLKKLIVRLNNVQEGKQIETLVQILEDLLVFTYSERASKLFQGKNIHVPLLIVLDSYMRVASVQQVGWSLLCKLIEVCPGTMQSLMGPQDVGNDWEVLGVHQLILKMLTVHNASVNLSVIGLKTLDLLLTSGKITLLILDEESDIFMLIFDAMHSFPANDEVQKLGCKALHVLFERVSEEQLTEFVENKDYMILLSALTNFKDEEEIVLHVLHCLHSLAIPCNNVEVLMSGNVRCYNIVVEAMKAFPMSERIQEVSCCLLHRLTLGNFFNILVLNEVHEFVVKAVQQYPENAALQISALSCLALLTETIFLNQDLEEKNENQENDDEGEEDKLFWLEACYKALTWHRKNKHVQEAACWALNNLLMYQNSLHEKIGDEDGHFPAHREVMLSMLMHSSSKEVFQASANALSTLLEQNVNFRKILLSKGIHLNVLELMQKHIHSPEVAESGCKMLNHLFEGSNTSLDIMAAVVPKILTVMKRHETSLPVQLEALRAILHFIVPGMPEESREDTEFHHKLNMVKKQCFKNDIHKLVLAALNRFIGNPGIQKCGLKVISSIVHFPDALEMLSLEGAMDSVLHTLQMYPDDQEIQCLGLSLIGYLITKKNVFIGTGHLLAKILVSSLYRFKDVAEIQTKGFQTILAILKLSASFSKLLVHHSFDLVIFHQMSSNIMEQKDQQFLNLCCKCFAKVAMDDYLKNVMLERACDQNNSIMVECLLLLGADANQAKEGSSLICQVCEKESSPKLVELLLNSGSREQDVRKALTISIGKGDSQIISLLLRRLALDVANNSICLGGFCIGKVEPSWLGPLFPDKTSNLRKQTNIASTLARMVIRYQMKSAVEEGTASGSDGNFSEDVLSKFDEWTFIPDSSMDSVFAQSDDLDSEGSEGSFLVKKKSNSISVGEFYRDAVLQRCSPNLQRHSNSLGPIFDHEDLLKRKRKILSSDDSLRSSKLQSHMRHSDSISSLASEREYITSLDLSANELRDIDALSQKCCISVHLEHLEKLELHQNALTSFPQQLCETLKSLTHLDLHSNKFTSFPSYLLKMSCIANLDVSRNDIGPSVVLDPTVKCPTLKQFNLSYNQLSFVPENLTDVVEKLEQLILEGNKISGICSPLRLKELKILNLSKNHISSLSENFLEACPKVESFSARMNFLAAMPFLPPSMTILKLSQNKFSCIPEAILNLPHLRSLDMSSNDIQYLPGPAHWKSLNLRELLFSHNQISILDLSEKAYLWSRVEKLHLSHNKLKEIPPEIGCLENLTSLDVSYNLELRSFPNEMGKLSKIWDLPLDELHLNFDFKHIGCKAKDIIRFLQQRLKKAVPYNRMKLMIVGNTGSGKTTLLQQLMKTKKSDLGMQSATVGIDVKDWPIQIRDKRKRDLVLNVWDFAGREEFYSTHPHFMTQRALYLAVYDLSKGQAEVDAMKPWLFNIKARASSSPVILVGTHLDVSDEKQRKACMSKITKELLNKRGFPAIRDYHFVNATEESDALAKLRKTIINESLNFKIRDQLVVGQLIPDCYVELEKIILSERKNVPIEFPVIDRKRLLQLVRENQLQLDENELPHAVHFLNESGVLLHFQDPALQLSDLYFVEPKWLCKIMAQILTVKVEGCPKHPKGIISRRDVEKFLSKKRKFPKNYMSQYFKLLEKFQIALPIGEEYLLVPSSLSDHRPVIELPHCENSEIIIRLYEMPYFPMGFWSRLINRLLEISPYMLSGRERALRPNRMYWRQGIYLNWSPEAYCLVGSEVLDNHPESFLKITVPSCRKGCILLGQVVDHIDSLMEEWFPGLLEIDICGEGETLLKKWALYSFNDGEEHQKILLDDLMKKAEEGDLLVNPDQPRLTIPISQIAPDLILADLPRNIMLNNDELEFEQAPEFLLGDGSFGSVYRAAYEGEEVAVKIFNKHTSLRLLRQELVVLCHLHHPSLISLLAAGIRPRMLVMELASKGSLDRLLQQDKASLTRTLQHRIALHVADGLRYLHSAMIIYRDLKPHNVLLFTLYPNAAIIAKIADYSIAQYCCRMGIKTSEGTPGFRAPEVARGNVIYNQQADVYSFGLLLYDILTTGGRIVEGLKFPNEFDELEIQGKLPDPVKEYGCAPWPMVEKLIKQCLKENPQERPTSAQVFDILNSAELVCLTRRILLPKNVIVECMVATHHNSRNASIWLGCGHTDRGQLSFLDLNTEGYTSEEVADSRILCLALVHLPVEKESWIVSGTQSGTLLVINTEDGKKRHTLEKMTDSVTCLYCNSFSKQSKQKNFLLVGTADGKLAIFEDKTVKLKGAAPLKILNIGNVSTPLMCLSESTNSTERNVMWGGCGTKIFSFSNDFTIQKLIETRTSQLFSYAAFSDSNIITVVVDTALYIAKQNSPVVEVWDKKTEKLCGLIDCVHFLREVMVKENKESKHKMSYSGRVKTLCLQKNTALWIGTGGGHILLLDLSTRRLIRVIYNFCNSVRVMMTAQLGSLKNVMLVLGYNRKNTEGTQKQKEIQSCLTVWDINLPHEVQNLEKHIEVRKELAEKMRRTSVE

FC1(F)CCC(Nc2nccc3[nH]nc(-c4ccncn4)c23)CC1 [Compound 38, N-(4,4-difluorocyclohexyl)-3-(pyrimidin-4-yl)-1H-pyrazolo[4,3-c]pyridin-4-amine]
Ki: 16.4 nM

O=C(c1ccnc(-c2n[nH]c3ccnc(NC4CCOCC4)c23)c1)N1CCC1 [Compound 63, azetidin-1-yl(2-(4-((tetrahydro-2H-pyran-4-yl)amino)-1H-pyrazolo[4,3-c]pyridin-3-yl)pyridin-4-yl)methanone]
Ki: 14.7 nM

FC(F)(F)c1cc(-c2n[nH]c3ccnc(NCC4CC4)c23)ncn1 [Compound 65, N-(cyclopropylmethyl)-3-(6-(trifluoromethyl)pyrimidin-4-yl)-1H-pyrazolo[4,3-c]pyridin-4-amine]
Ki: 20.2 nM

Cc1cc(C(F)(F)F)cc(-c2n[nH]c3ccnc(NC4CCOCC4)c23)n1 [Compound 70, 3-(6-methyl-4-(trifluoromethyl)pyridin-2-yl)-N-(tetrahydro-2H-pyran-4-yl)-1H-pyrazolo[4,3-c]pyridin-4-amine]
Ki: 0.7 nM

FC1(F)CN(c2ccnc(-c3n[nH]c4ccnc(NC5CCOCC5)c34)c2)CC(F)(F)O1 [Compound 61, 3-(4-(2,2,6,6-tetrafluoro-morpholino)pyridin-2-yl)-N-(tetrahydro-2H-pyran-4-yl)-1H-pyrazolo[4,3-c]pyridin-4-amine]
Ki: 1.4 nM

CC(C)Nc1nccc2[nH]nc(-c3nc(C4CC4)n(C)n3)c12 [Compound 42, 3-(5-cyclopropyl-1-methyl-1H-1,2,4-triazol-3-yl)-N-isopropyl-1H-pyrazolo[4,3-c]pyridin-4-amine]
Ki: 213 nM

CC(C)Nc1nccc2[nH]nc(-c3cc(C(=O)N(C)C)ccn3)c12 [Compound 55, 2-(4-(isopropylamino)-1H-pyrazolo[4,3-c]pyridin-3-yl)-N,N-dimethylisonicotinamide]
Ki: 46.9 nM

Cc1cc2[nH]nc(-c3cc(C(=O)N(C)C)ccn3)c2c(NC2CCOCC2)n1 [Compound 60, N,N-dimethyl-2-(6-methyl-4-((tetrahydro-2H-pyran-4-yl)amino)-1H-pyrazolo[4,3-c]pyridin-3-yl)isonicotinamide]
Ki: 644 nM

FC(F)(F)c1cc(-c2n[nH]c3ccnc(NC(C4CC4)C4CC4)c23)ncn1 [Compound 73, N-(dicyclopropylmethyl)-3-(6-(trifluoro-methyl)pyrimidin-4-yl)-1H-pyrazolo[4,3-c]pyridin-4-amine]
Ki: 2.5 nM

Cc1nccc(-c2n[nH]c3ccnc(NC4CCOCC4)c23)n1 [Compound 33, 3-(2-methylpyrimidin-4-yl)-N-(tetrahydro-2H-pyran-4-yl)-1H-pyrazolo[4,3-c]pyridin-4-amine]
Ki: 1 nM

FC(F)(F)c1cc(-c2n[nH]c3ccnc(NC4CCOCC4)c23)ncn1 [Compound 22, N-(tetrahydro-2H-pyran-4-yl)-3-(6-(trifluoromethyl)pyrimidin-4-yl)-1H-pyrazolo[4,3-c]pyridin-4-amine]
Ki: 2.9 nM

CCOc1cc(-c2n[nH]c3cc(C)nc(NC4CCOCC4)c23)ncn1 [Compound 58, 3-(6-ethoxypyrimidin-4-yl)-6-methyl-N-(tetrahydro-2H-pyran-4-yl)-1H-pyrazolo[4,3-c]pyridin-4-amine]
Ki: 39.1 nM

CCNc1nccc2[nH]nc(-c3cn(C(C)C)nn3)c12 [Compound 9, N-ethyl-3-(1-isopropyl-1H-1,2,3-triazol-4-yl)-1H-pyrazolo[4,3-c]pyridin-4-amine]
Ki: 13.1 nM

CC(C)Nc1nccc2[nH]nc(-c3ccncn3)c12 [Compound 15, N-isopropyl-3-(pyrimidin-4-yl)-1H-pyrazolo[4,3-c]pyridin-4-amine]
Ki: 20.9 nM

N#Cc1ccnc(-c2n[nH]c3ccnc(NC4CCOCC4)c23)c1 [Compound 26, 2-(4-((tetrahydro-2H-pyran-4-yl)amino)-1H-pyrazolo[4,3-c]pyridin-3-yl)isonicotinonitrile]
Ki: 3.8 nM

FC(F)(F)CNc1nccc2[nH]nc(-c3ccccn3)c12 [Compound 43, 3-(pyridin-2-yl)-N-(2,2,2-trifluoroethyl)-1H-pyrazolo[4,3-c]pyridin-4-amine]
Ki: 8.8 nM

CC(C)Nc1nccc2[nH]nc(-c3cc(C4CCOC4)ncn3)c12 (stereo not drawn) [Compound 48, N-isopropyl-3-(6-(tetrahydrofuran-3-yl)pyrimidin-4-yl)-1H-pyrazolo[4,3-c]pyridin-4-amine]
Ki: 12 nM

CCOc1ccnc(-c2n[nH]c3ccnc(NC4CCOCC4)c23)c1 [Compound 50, 3-(4-ethoxypyridin-2-yl)-N-(tetrahydro-2H-pyran-4-yl)-1H-pyrazolo[4,3-c]pyridin-4-amine]
Ki: 2.2 nM

c1cc(-c2n[nH]c3ccnc(NC4CCOCC4)c23)ncn1 [Compound 18, 3-(pyrimidin-4-yl)-N-(tetrahydro-2H-pyran-4-yl)-1H-pyrazolo[4,3-c]pyridin-4-amine]
Ki: 6 nM

CCNc1nccc2[nH]nc(-c3ccccn3)c12 [Compound 16, N-ethyl-3-(pyridin-2-yl)-1H-pyrazolo[4,3-c]pyridin-4-amine]
Ki: 66.4 nM

Cc1cc(C(=O)N(C)C)cc(-c2n[nH]c3ccnc(NC4CCOCC4)c23)n1 [Compound 64, N,N,2-trimethyl-6-(4-((tetrahydro-2H-pyran-4-yl)amino)-1H-pyrazolo[4,3-c]pyridin-3-yl)isonicotinamide]
Ki: 16.6 nM

CC(C)Nc1nccc2[nH]nc(-c3cc(-c4ccnn4C)ccn3)c12 [Compound 36, N-isopropyl-3-(4-(1-methyl-1H-pyrazol-5-yl)pyridin-2-yl)-1H-pyrazolo[4,3-c]pyridin-4-amine]
Ki: 3.7 nM

CC(C)n1cnc(-c2n[nH]c3ccnc(NC4CCOCC4)c23)c1 [Compound 6, 3-(1-isopropyl-1H-imidazol-4-yl)-N-(tetrahydro-2H-pyran-4-yl)-1H-pyrazolo[4,3-c]pyridin-4-amine]
Ki: 3.3 nM

CN(C)C(=O)c1ccnc(-c2n[nH]c3ccnc(NC4CCOCC4)c23)c1 [Compound 52, N,N-dimethyl-2-(4-((tetrahydro-2H-pyran-4-yl)amino)-1H-pyrazolo[4,3-c]pyridin-3-yl)isonicotinamide]
Ki: 37.2 nM

c1ccc(-c2n[nH]c3ccnc(NC4CCOCC4)c23)nc1 [Compound 17, 3-(pyridin-2-yl)-N-(tetrahydro-2H-pyran-4-yl)-1H-pyrazolo[4,3-c]pyridin-4-amine]
Ki: 3.1 nM

CC1CC(Nc2nccc3[nH]nc(-c4cc(C(F)(F)F)ncn4)c23)CC(C)O1 (stereo not drawn) [Compound 68, N-(2,6-dimethyltetrahydro-2H-pyran-4-yl)-3-(6-(trifluoromethyl)pyrimidin-4-yl)-1H-pyrazolo[4,3-c]pyridin-4-amine]
Ki: 23.3 nM

Cc1nc(-c2n[nH]c3ccnc(NC4CCC(F)(F)CC4)c23)cc(C(F)(F)F)n1 [Compound 67, N-(4,4-difluorocyclohexyl)-3-(2-methyl-6-(trifluoromethyl)pyrimidin-4-yl)-1H-pyrazolo[4,3-c]pyridin-4-amine]
Ki: 20.3 nM

CCNc1nccc2[nH]nc(-c3cn(C)cn3)c12 [Compound 12, N-ethyl-3-(1-methyl-1H-imidazol-4-yl)-1H-pyrazolo[4,3-c]pyridin-4-amine]
Ki: 33.7 nM

Cc1cc(S(C)(=O)=O)cc(-c2n[nH]c3ccnc(NC(C)C)c23)n1 [Compound 76, N-isopropyl-3-(6-methyl-4-(methylsulfonyl)pyridin-2-yl)-1H-pyrazolo[4,3-c]pyridin-4-amine]
Ki: 4.5 nM

CC(C)Nc1nccc2[nH]nc(-c3cc(C4CCOCC4)ccn3)c12 [Compound 39, N-isopropyl-3-(4-(tetrahydro-2H-pyran-4-yl)pyridin-2-yl)-1H-pyrazolo[4,3-c]pyridin-4-amine]
Ki: 3.9 nM

Cc1cc2[nH]nc(-c3cc(C(F)(F)F)ncn3)c2c(NC2CCOCC2)n1 [Compound 57, 6-methyl-N-(tetrahydro-2H-pyran-4-yl)-3-(6-(trifluoromethyl)pyrimidin-4-yl)-1H-pyrazolo[4,3-c]pyridin-4-amine]
Ki: 66.3 nM

CC(C)Nc1nccc2[nH]nc(-c3cc(C(=O)N4CCOCC4)ccn3)c12 [Compound 56, (2-(4-(isopropylamino)-1H-pyrazolo[4,3-c]pyridin-3-yl)pyridin-4-yl)(morpholino)methanone]
Ki: 80.3 nM

CCNc1nccc2[nH]nc(-c3cc(C#N)ccn3)c12 [Compound 25, 2-(4-(ethylamino)-1H-pyrazolo[4,3-c]pyridin-3-yl)isonicotinonitrile]
Ki: 14.2 nM

CC(C)Nc1nccc2[nH]nc(-c3cc(N4CCOCC4)ncn3)c12 [Compound 4, N-isopropyl-3-(6-morpholinopyrimidin-4-yl)-1H-pyrazolo[4,3-c]pyridin-4-amine]
Ki: 1.1 nM

CC(C)Nc1nccc2[nH]nc(-c3nnc(C4CC4)n3C)c12 [Compound 41, 3-(5-cyclopropyl-4-methyl-4H-1,2,4-triazol-3-yl)-N-isopropyl-1H-pyrazolo[4,3-c]pyridin-4-amine]
Ki: 151 nM

CCNc1nccc2[nH]nc(-c3cc(C(F)(F)F)ncn3)c12 [Compound 27, N-ethyl-3-(6-(trifluoromethyl)pyrimidin-4-yl)-1H-pyrazolo[4,3-c]pyridin-4-amine]
Ki: 31.8 nM
